According to the NIST ThermoML archive (doi:10.1021/je801006q):

Tests used:
[1] = excess molar enthalpy (molar enthalpy of mixing); xn = mol fraction of the nth substance listed; settings: 298.15 K, 101 kPa, Liquid, Calvet calorimetry
[2] = xn = mol fraction of the nth substance listed; settings: 101 kPa, Liquid

O=C1CCCN1 [2-pyrrolidinone] + CC(C)(C)O
[1]
Settings | excess molar enthalpy [kcal/mol]
x1 = 0.0498 | 0.0345
x1 = 0.1189 | 0.0582
x1 = 0.1932 | 0.077
x1 = 0.2551 | 0.0902
x1 = 0.3309 | 0.102
x1 = 0.3946 | 0.106
x1 = 0.4411 | 0.106
x1 = 0.4943 | 0.103
x1 = 0.5766 | 0.0947
x1 = 0.6806 | 0.081
x1 = 0.7422 | 0.0687
x1 = 0.8435 | 0.0413
x1 = 0.9312 | 0.0257

[2]
Settings | mass density, 293.15 K [kg/m3] | mass density, 298.15 K [kg/m3] | mass density, 303.15 K [kg/m3] | viscosity, 293.15 K [mPa·s] | viscosity, 298.15 K [mPa·s] | viscosity, 303.15 K [mPa·s]
x1 = 0.0786 | 806.96 | 802 | 797.13 | 4.778 | 3.771 | 3.586
x1 = 0.1832 | 836.27 | 831.45 | 826.69 | 3.931 | 3.23 | 2.732
x1 = 0.2489 | 855.32 | 850.57 | 845.86 | 3.399 | 2.698 | 2.053
x1 = 0.3105 | 873.59 | 868.94 | 864.29 | 2.824 | 2.109 | 1.481
x1 = 0.3875 | 897.03 | 892.52 | 887.93 | 2.167 | 1.547 | 0.786
x1 = 0.4556 | 918.3 | 913.93 | 909.39 | 1.857 | 1.333 | 0.464
x1 = 0.5003 | 932.55 | 928.28 | 923.8 | 1.665 | – | –
x1 = 0.5734 | 956.36 | 952.27 | 947.87 | 1.87 | 1.496 | –
x1 = 0.6544 | 983.51 | 979.59 | 975.32 | 2.478 | 2.049 | 1.049
x1 = 0.7236 | 1007.36 | 1003.63 | 999.49 | 3.648 | 3.252 | 2.12
x1 = 0.7995 | 1034.28 | 1030.79 | 1026.74 | 5.671 | 5.011 | 3.681
x1 = 0.8672 | 1059.06 | 1055.73 | 1051.83 | 8.035 | 7.463 | 5.849
x1 = 0.9237 | 1080.26 | 1077.13 | 1073.37 | 10.94 | 9.609 | 8.042
x1 = 0.9823 | 1102.87 | 1099.95 | 1096.31 | 14.34 | 12.12 | 9.894
